Here are results for one compound from paper PMC5459853, “Cathepsin S inhibition combines control of systemic and peripheral pathomechanisms of autoimmune tissue injury” (Scientific Reports, 2017).

The target of series [1] is T1, Cat-S (splenic p10 induction) (Mus musculus, UniProt O70370).
T1 construct: from tissue; host or cells: mouse spleen / splenocytes after oral dosing
In words: Acute in vivo pharmacodynamics: splenic p10 induction after oral gavage. Further details: species or system BALB/c mice. The procedure:
(§1) For the determination of in-vivo enzyme inhibition activity of Cat-S by RO5459072 BALB/c mice were used. After oral dosing of 0.1 mg/kg to 100 mg/kg of RO5459072, mice were sacrificed after 7 hours and spleens harvested. Invariant chain was quantified by western blot from mouse splenocyte supernatants loaded onto 10% SDS-PAGE gel. Upon transfer onto a nitrocellulose membrane rabbit anti-CD74 (BD Biosciences) was used.
(§2) Supplementary figure 1. Biochemical and pharmacological profile of R05459072. (A) Upregulation of invariant chain p10 levels in human B-cells was estimated by p10 ELISA, upon treatment with increasing concentration of RO5459072. […]
(§3) upregulation in B-cells derived from 6 healthy volunteers. (B) Determination of KM for the fluorogenic substrate Z-Phe-Arg-AMC. (C) Progress curves of hydrolysis of 10 µM Z-Phe-Arg-AMC by 10 nM Cat-S in the presence of no (black dots) or increasing concentration of RO5459072. A linear equation was fitted to the data to determine the slope (solid lines). […]
(§4) the residuals of the fit to the data. (D) Secondary plot of the slopes from panel B as function of RO5459072 concentration (dots with color coding from panel B). The Morrison equation was […]
(§5) active Cat-S converged to [E]0 = 6.9 nM). The dashed red lines indicate the 95 % confidence intervals of the fit to the data. (E) Pharmacodynamics of R05459072 was determined in C57Bl6 mice with increasing amounts of compound as single dose. Plasma levels of compounds were correlated to the upregulation of p10 in spleenocytes.
(§6) Supplementary figure 2. FACS gating strategies used for the different splenic immune cell populations. (A-C) Activated dendritic cells CD11c+CD11b+MHC-II, (D-F) activated macrophages CD11c+F480+MHC-II and (G-H) plasma cells CD138+κ-light chain+
(§7) Supplementary figure 3. Plasma IgG isotypes in MRL-(Fas)lpr mice. Plasma levels of IgG1 (A), IgG2a (B), and IgG2b (C) were determined by ELISA at different time points from the initiation (week 11) to the end of treatment (week 19). Data are expressed as means ± SEM (n=8 to 10 in […]

Assay in series [2]: as above
More on the design: species or system BALB/c mice. To be noted: BALB/c, mouse, plasma; oral gavage 1 mg/kg; read-out: plasma concentration of the inhibitor at maximal p10 induction. On the procedure:
as §1, §2, §3, §4, §5, §6, §7

In a further series the target is Human Cat-L (Homo sapiens, UniProt P07711). In words: Enzymatic isoform-selectivity assay, Cat-L. It counts as biochemical. The procedure: (§8) RO5459072 was provided by F. Hoffmann-La Roche, Ltd., Basel, Switzerland. It is a competitive inhibitor of the active site of Cat-S and its nitrile function allows covalent reversible inhibition of Cat-S. The synthesis of RO5459072 has been described in WO 2010121918 and WO 2013068434. Recombinant cathepsins were produced in-house or were purchased from commercial vendors. Initial enzymatic assays to determine isoform-selectivity in vitro were performed as previously described, [23]. […] For this the Cat-S-dependent hydrolysis of the fluorogenic substrate Z-Phe-Arg-AMC (Sigma Aldrich) was followed at various inhibitor concentrations. The active fraction of Cat-S was detemined as 70% with a HPLC assay measuring modification of Cat-S with the covalent inhibitor LHVS. The buffer (100 mM potassium phosphate, 50 mM NaCl, 5 mM EDTA, 5 mM TCEP, pH 6) was thoroughly degassed prior to perfoming measurements to prevent oxidation of the catalytic cystein residue by dissolved oxygen. For the Ki-determination the substrate was employed at 10 µM = KM. All kinetic measurements were performad on a SFM-3000 stopped-flow instrument (Bio-Logic Science Instruments) and data were analyzed with GraphPad Prism v5.
Human Cat-L, sequence (P07711 114-333): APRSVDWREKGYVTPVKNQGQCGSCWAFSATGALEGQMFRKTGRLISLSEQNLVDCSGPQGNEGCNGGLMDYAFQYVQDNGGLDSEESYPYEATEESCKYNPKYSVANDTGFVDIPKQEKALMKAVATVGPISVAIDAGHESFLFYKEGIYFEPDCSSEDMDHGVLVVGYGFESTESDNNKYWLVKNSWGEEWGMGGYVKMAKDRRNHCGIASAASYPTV

Another series has as its target T2, Human Cat-K (Homo sapiens, UniProt P43235).
T2 sequence (P43235 115-329): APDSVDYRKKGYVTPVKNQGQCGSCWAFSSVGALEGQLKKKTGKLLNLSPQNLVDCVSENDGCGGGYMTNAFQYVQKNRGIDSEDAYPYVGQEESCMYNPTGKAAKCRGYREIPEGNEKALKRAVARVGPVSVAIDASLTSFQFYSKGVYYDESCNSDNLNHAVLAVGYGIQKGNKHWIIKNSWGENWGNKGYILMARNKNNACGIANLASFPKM
The experiment in a line: Enzymatic isoform-selectivity assay, Cat-K. It counts as biochemical. On the procedure:
as §8

For a further series, the target named is Human Cat-S (Homo sapiens, UniProt P25774). In words: Tight-binding kinetic analysis, Z-Phe-Arg-AMC hydrolysis, Morrison equation. It counts as biochemical. The conditions noted are these: 10 µM Z-Phe-Arg-AMC (= KM), 10 nM Cat-S, pH 6. On the procedure: as §8, with “The buffer (100 mM potassium phosphate, 50 mM NaCl, 5 mM EDTA, 5 mM TCEP, pH 6) was thoroughly degassed prior to perfoming measurements to prevent oxidation of the catalytic cystein residue by dissolved oxygen. For the Ki-determination the substrate was employed at 10 µM = KM.” left out, “v5. […]” for “v5.”
Human Cat-S, sequence (P25774 115-331): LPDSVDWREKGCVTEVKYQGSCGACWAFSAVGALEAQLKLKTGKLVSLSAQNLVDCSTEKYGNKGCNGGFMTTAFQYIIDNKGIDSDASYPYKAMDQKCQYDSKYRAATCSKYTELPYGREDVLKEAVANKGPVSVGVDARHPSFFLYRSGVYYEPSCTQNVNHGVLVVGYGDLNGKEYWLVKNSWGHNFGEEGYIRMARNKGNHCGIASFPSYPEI

active Cat-S converged to [E]0 = 6.9 nM). […] (E) Pharmacodynamics of R05459072 was determined in C57Bl6 mice with increasing amounts of compound as single dose. […]
Supplementary figure 3. […] Plasma levels of IgG1 (A), IgG2a (B), and IgG2b (C) were determined by ELISA at different time points from the initiation (week 11) to the end of treatment (week 19). Data are expressed as means ± SEM (n=8 to 10 in […]

For orientation: IC50 means the concentration needed to halve the response being measured. The low end stands for higher potency, the high end for lower potency. For orientation: Ki means a dissociation constant, usually derived from enzyme kinetics or from competition with a known ligand. A high value points to weaker binding. With `Cn1cc(-c2ccc(S(=O)(=O)[C@@H]3C[C@@H](C(=O)NC4(C#N)CC4)N(C(=O)C4(C(F)(F)F)CC4)C3)c(C(F)(F)F)c2)cn1` [RO5459072], the “dose of maximal splenic p10 induction” value in series [1] (oral gavage, single doses 0.1–100 mg/kg, spleens after 7 hours) is 1 mg/kg. The EC50 in series [1] (single oral dose, mice, read-out: p10/li in vivo EC50 (plasma level vs p10 upregulation in splenocytes)) was 17 nM. In addition, in series [2], the concentration at 7 h came to 17 nM. Besides, on Human Cat-L, the concentration for half-maximal inhibition (IC50) was more than 1000 nM and the “IC50, Human Cat-L” value is on record as “No sub-micro molar inhibition”. Moreover, on Human Cat-K, the IC50 is more than 1000 nM and the “IC50, Human Cat-K” value is “No sub-micro molar inhibition”. The compound also gave a Ki on Human Cat-S of 0.066 ± 0.025 nM.
